Consider one compound from publication PMC8058344, “ARIH1 signaling promotes anti-tumor immunity by targeting PD-L1 for proteasomal degradation” (Nature Communications, 2021).

For this assay, the system named is GSK3α. In words: Immunoblots of p-GSK3α in H1975 cells. It counts as cell-based, human. To be noted: 10 μM, 24 h, compared to Gefitinib and AZD9291. On the procedure:
For western blot analysis, cells were collected and washed with PBS, then lysed in radioimmunoprecipitation assay (RIPA) buffer (1% Triton X-100, 100 mM Tris-HCl pH 8.8, 100 mM NaCl, 0.5 mM EDTA). After incubation on ice for 30 min, the lysates were centrifuged at 12,000 × g for 10 min at 4 °C. The supernatant was collected and the protein concentration was measured by bicinchoninic acid reaction. Protein samples were added with 2× loading buffer and heated at 100 °C for 10 min, separated with SDS-polyacrylamide gel electrophoresis (SDS-PAGE), transferred onto polyvinylidene difluoride membranes, and blocked with 5% non-fat milk in Phosphate Buffered Saline with 0.1% Tween-20 (PBST) for 1 h at room temperature. The membranes were probed with the corresponding primary antibodies at 4 °C overnight and horseradish peroxidase-conjugated secondary antibodies at room temperature for 1 h. Signals were detected using chemiluminescence reagents (#4AW001-500, 4A649 Biotech, Co.).
Flag-EV Flag-PD-L1 Flag-EV Flag-PD-L1
43 Flag-PD-L1-TM Flag-PD-L1-TM
GSK3 concenseus phosphorylation motif:S/TXXX S/T EGFR 180 […]
Supplementary Figure 4. […] Quantification for the mean area (MA) of PD-L1/GSK3α (n = 50) or PD-L1/GSK3β (n = 44-50) PLA speckles are indicated by scattergram. […]
For orientation: A western blot detects proteins with antibodies after separation by electrophoresis.

With `C=CC(=O)Nc1cccc(Nc2nc(Nc3ccc(N4CCN(C)CC4)nc3OC)ncc2C(F)(F)F)c1` [ES-072], the “activation effect on GSK3α (loss of the inhibitory phosphorylation of GSK3α)” value was “higher activation effect”.
